This assay addresses PI3Kβ (Homo sapiens (Human), UniProt P42338). Briefly: PI3K isoform TR-FRET enzymatic assay (PI3Kβ). In kind it is biochemical. The following applies: 2× Km ATP, 30 minutes at 25° C. The procedure, abridged: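 Heterodimeric recombinant PI3Kβ was incubated with compound 30 minutes at 25° C. Product was detected by TR-FRET competition with 10 nM labeled PIP3 for 35 nM Eu-GRP-1 PH domain after EDTA stop. Data were normalized to 1 μM wortmannin and DMSO, and IC50 was taken from a four-parameter fit.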
A general note: In TR-FRET formats the signal depends on donor and acceptor labels being close together.

Sequence of PI3Kβ (P42338 whole entry, the tested form may be a part, canonical isoform): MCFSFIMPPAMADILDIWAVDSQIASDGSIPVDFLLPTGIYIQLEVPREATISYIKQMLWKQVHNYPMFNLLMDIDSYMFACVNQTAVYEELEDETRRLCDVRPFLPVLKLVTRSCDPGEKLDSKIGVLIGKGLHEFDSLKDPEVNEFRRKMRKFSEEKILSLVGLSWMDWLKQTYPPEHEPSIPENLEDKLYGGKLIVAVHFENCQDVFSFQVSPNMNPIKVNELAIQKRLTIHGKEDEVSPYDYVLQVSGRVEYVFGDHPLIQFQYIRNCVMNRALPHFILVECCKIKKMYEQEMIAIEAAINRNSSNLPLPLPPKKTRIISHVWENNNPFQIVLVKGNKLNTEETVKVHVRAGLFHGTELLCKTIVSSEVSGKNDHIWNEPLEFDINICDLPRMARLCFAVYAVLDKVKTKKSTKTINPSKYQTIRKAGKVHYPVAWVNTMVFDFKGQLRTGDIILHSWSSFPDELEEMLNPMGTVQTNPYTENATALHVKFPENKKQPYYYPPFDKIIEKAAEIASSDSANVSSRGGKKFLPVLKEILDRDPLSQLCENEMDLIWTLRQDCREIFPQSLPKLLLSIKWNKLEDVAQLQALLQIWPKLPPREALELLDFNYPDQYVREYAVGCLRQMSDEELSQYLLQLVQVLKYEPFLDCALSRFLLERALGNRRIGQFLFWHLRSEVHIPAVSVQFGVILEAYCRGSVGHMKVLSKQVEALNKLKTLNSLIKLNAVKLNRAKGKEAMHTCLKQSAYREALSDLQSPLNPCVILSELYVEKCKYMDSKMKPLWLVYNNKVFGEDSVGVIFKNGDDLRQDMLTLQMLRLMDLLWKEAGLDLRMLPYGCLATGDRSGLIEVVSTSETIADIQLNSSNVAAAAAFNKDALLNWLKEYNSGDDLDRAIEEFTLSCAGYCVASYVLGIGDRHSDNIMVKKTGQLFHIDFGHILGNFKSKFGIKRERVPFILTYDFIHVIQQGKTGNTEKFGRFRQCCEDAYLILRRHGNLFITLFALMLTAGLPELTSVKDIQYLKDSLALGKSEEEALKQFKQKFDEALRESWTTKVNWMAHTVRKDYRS
Sequence of PI3Kβ (P27986 whole entry partner, the tested form may be a part, canonical isoform): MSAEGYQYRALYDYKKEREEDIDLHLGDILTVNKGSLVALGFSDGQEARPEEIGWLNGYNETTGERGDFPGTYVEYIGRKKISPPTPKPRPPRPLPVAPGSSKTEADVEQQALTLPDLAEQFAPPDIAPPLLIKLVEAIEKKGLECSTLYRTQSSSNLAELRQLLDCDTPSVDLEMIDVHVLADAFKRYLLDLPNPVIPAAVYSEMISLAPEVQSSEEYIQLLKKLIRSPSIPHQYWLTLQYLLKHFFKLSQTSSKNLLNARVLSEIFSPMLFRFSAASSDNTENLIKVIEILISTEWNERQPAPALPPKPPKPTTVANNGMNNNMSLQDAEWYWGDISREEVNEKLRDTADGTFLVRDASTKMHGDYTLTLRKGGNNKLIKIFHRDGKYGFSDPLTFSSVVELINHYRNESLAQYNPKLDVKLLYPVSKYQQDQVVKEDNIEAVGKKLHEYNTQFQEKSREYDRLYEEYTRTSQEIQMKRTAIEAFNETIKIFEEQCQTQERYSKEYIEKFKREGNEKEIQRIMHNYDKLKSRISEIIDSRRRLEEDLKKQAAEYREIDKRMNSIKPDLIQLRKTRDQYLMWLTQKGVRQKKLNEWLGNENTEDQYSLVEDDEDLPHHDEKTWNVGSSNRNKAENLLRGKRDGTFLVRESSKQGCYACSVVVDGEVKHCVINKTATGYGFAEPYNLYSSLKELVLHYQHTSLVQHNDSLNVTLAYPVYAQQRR

For `c1ccc2c(-n3c(C4COC4)nc4c(-c5nnc[nH]5)cc(N5CCOCC5)cc43)ccnc2c1` [Example 24, 4-(2-(oxetan-3-yl)-1-(quinolin-4-yl)-4-(4H-1,2,4-triazol-3-yl)-1H-benzo[d]imidazol-6-yl)morpholine], the IC50 (commonly the midpoint of a concentration-inhibition curve) stood at 1500 nM.

`CCCc1nc2c(-c3cnc(Cl)[nH]3)cc(N3CCOCC3)cc2n1-c1ccnc2c(F)cccc12` [Example 305, 4-[7-(2-chloro-1H-imidazol-5-yl)-3-(8-fluoroquinolin-4-yl)-2-propylbenzimidazol-5-yl]morpholine] returned an IC50 of 13 nM.

Take `Cc1nc2c(-c3cnn[nH]3)cc(N3CCOCC3)cc2n1-c1ccnc2c(Cl)cccc12` [Example 329, 4-(1-(8-chloroquinolin-4-yl)-2-methyl-4-(1H-1,2,3-triazol-5-yl)-1H-benzo[d]imidazol-6-yl)morpholine]: the IC50 stood at 7 nM.

With `FC1(c2nc3c(-c4nnc[nH]4)cc(N4CCOCC4)cc3n2-c2ccnc3c(Cl)cccc23)CC1` [Example 54, 4-(1-(8-chloroquinolin-4-yl)-2-(1-fluorocyclopropyl)-4-(4H-1,2,4-triazol-3-yl)-1H-benzo[d]imidazol-6-yl)morpholine], the IC50 was 14 nM. `Fc1ccc(Cl)c2c(-n3cnc4c(-c5nnc[nH]5)cc(N5CCOCC5)cc43)ccnc12` [Example 96, 4-[3-(5-chloro-8-fluoroquinolin-4-yl)-7-(4H-1,2,4-triazol-3-yl)benzimidazol-5-yl]morpholine] gave an IC50 of 24 nM. As to `Cc1nc2c(-c3ncc[nH]3)cc(N3CCOCC3)cc2n1-c1ccnc2c(Cl)cccc12` [Example 175, 4-[3-(8-chloroquinolin-4-yl)-7-(1H-imidazol-2-yl)-2-methylbenzimidazol-5-yl]morpholine], the IC50 worked out at 10 nM.

The compound `Cc1nc2c(-c3cccc(N(C)C)c3)cc(N3CCOCC3)cc2n1-c1ccnc2c(Cl)cccc12` [Example 316, 3-(1-(8-chloroquinolin-4-yl)-2-methyl-6-morpholino-1H-benzo[d]imidazol-4-yl)-N,N-dimethylaniline] registered an IC50 of 2500 nM. Take `Cc1nc2c(-c3nnc[nH]3)cc(N3CCOCC3)cc2n1-c1ccnc2cccc(C(F)F)c12` [Example 85, 4-[3-[5-(difluoromethyl)quinolin-4-yl]-2-methyl-7-(4H-1,2,4-triazol-3-yl)benzimidazol-5-yl]morpholine]: the IC50 turned out to be 280 nM.

Compound `Clc1cccc2c(-n3c(C4CC4)nc4c(-c5cnn[nH]5)cc(N5CCOCC5)cc43)ccnc12` [Example 378, 4-(1-(8-chloroquinolin-4-yl)-2-cyclopropyl-4-(1H-1,2,3-triazol-5-yl)-1H-benzo[d]imidazol-6-yl)morpholine] gave an IC50 of 27 nM.

In turn, `Fc1ccc2c(-n3c(C4CC4)nc4c(-c5nnc[nH]5)cc(N5CCOCC5)cc43)ccnc2c1Cl` [Example 38, 4-(1-(8-chloro-7-fluoroquinolin-4-yl)-2-cyclopropyl-4-(4H-1,2,4-triazol-3-yl)-1H-benzo[d]imidazol-6-yl)morpholine] had an IC50 of 11 nM.

`Cc1nc2c(-c3nnc(N)s3)cc(N3CCOCC3)cc2n1-c1ccnc2cc(F)ccc12` [Example 165, 5-(1-(7-fluoroquinolin-4-yl)-2-methyl-6-morpholino-1H-benzo[d]imidazol-4-yl)-1,3,4-thiadiazol-2-amine]: 720 nM corresponded to half-maximal inhibition (IC50). `Cc1nc2c(-c3ccccc3)cc(N3CCOCC3)cc2n1-c1ccnc2c(-c3ccccc3)cccc12` [Example 312, 4-(2-methyl-4-phenyl-1-(8-phenylquinolin-4-yl)-1H-benzo[d]imidazol-6-yl)morpholine] showed an IC50 of 967 nM.

In the case of `Cc1nnc(-c2cc(N3CCOCC3)cc3c2ncn3-c2ccnc3cc(F)ccc23)[nH]1` [Example 22, 4-(1-(7-fluoroquinolin-4-yl)-4-(5-methyl-4H-1,2,4-triazol-3-yl)-1H-benzo[d]imidazol-6-yl)morpholine], the IC50 is 280 nM.

Compound `CCc1nc2c(-c3cnc(Cl)[nH]3)cc(N3CCOCC3)cc2n1-c1ccnc2c(F)ccc(F)c12` [Example 280, 4-[7-(2-chloro-1H-imidazol-5-yl)-3-(5,8-difluoroquinolin-4-yl)-2-ethylbenzimidazol-5-yl]morpholine] showed an IC50 of 13 nM. Next, `CCCc1nc2c(-c3cnc(Cl)[nH]3)cc(N3CCOCC3)cc2n1-c1ccnc2c(F)ccc(F)c12` [Example 299, 4-[7-(2-chloro-1H-imidazol-5-yl)-3-(5,8-difluoroquinolin-4-yl)-2-propylbenzimidazol-5-yl]morpholine]: 17 nM; `Cc1nc2c(-c3nnc[nH]3)cc(N3CCOCC3)cc2n1-c1cc(-c2nnc[nH]2)nc2ccccc12` [Example 57, 4-[2-methyl-7-(4H-1,2,4-triazol-3-yl)-3-[2-(4H-1,2,4-triazol-3-yl)quinolin-4-yl]benzimidazol-5-yl]morpholine]: 55 nM. Compound `CCCc1nc2c(-c3nnc[nH]3)cc(N3CCOCC3)cc2n1-c1ccnc2c(F)cc(F)cc12` [Example 146, 4-[3-(6,8-difluoroquinolin-4-yl)-2-propyl-7-(4H-1,2,4-triazol-3-yl)benzimidazol-5-yl]morpholine] showed an IC50 of 101 nM. In turn, `COC(C)c1nc2c(-c3nnc[nH]3)cc(N3CCOCC3)cc2n1-c1ccnc2c(Cl)cccc12` (stereo not drawn) [Example 12, 4-(1-(8-chloroquinolin-4-yl)-2-(1-methoxyethyl)-4-(4H-1,2,4-triazol-3-yl)-1H-benzo[d]imidazol-6-yl)morpholine] showed an IC50 of 43 nM.

Consider `Fc1ccc(F)c2c(-n3cnc4c(-c5ncco5)cc(N5CCOCC5)cc43)ccnc12` [Example 236, 4-[3-(5,8-difluoroquinolin-4-yl)-7-(1,3-oxazol-2-yl)benzimidazol-5-yl]morpholine], for which inhibition was half-maximal at 5 nM (IC50). Compound `CCc1nc2c(-c3ncco3)cc(N3CCOCC3)cc2n1-c1ccnc2c(F)cccc12` [Example 213, 4-[2-ethyl-3-(8-fluoroquinolin-4-yl)-7-(1,3-oxazol-2-yl)benzimidazol-5-yl]morpholine] registered an IC50 of 16 nM. Take `CCc1nc2c(-c3cnc(Cl)[nH]3)cc(N3CCOCC3)cc2n1-c1ccnc2c(F)ccc(Cl)c12` [Example 310, 4-[3-(5-chloro-8-fluoroquinolin-4-yl)-7-(2-chloro-1H-imidazol-5-yl)-2-ethylbenzimidazol-5-yl]morpholine]: half-maximal inhibition (IC50) was put at 36 nM. For the compound `Cc1nc2c(-c3cncn3C)cc(N3CCOCC3)cc2n1-c1ccnc2c(Cl)cccc12` [Example 202, 4-[3-(8-chloroquinolin-4-yl)-2-methyl-7-(3-methylimidazol-4-yl)benzimidazol-5-yl]morpholine], the IC50 was above 10000 nM. Consider `CCCc1nc2c(-c3nnc[nH]3)cc(N3CCOCC3)cc2n1-c1ccnc2c(F)cccc12` (atropisomer, axis not shown) [Compound 355, 4-[3-(8-fluoroquinolin-4-yl)-2-propyl-7-(4H-1,2,4-triazol-3-yl)benzimidazol-5-yl]morpholine], for which the IC50 came to 2500 nM.

`Cc1nnc(-c2cc(N3CCOCC3)cc3c2nc(C2CCCO2)n3-c2ccnc3c(Cl)cccc23)[nH]1` (stereo not drawn) [Example 16, 4-(1-(8-chloroquinolin-4-yl)-4-(5-methyl-4H-1,2,4-triazol-3-yl)-2-(tetrahydrofuran-2-yl)-1H-benzo[d]imidazol-6-yl)morpholine] gave an IC50 of 53 nM.

Source of the values: US10214519B2, “Phosphatidylinositol 3-kinase inhibitors” (Gilead Sciences, Inc., priority 2016, dated 2019).
